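Dose response: 5 concentrations. Exposure: 48 h. Format: 96-well plates. Endpoint: linear interpolation; highest concentration if not reached. Definition used: TGI = concentration required for complete inhibition of growth.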
Legend:
Experiment in all cases: DTP human tumour cell line panel, 48 h
CAKI-1 renal = system: CAKI-1 renal
HCC-2998 colon = system: HCC-2998 colon
EKVX NSCLC = system: EKVX NSCLC
PC-3 prostate = system: PC-3 prostate
MDA-MB-435 = system: MDA-MB-435
A549 NSCLC = system: A549 NSCLC
SW-620 colon = system: SW-620 colon
NCI-H522 lung = system: NCI-H522 lung
A498 renal = system: A498 renal
UACC-62 melanoma = system: UACC-62 melanoma
OVCAR-8 ovarian = system: OVCAR-8 ovarian
MOLT-4 leukemia = system: MOLT-4 leukemia
SN12C renal = system: SN12C renal
NCI-H23 lung = system: NCI-H23 lung
SK-MEL-28 melanoma = system: SK-MEL-28 melanoma
M14 melanoma = system: M14 melanoma
HCT-116 colon = system: HCT-116 colon
LOX IMVI melanoma = system: LOX IMVI melanoma
NCI-H460 lung = system: NCI-H460 lung
NCI/ADR-RES ovarian = system: NCI/ADR-RES ovarian
SNB-75 CNS = system: SNB-75 CNS
MALME-3M melanoma = system: MALME-3M melanoma
SK-OV-3 ovarian = system: SK-OV-3 ovarian
ACHN renal = system: ACHN renal
MDA-N = system: MDA-N
COLO 205 colon = system: COLO 205 colon
786-0 renal = system: 786-0 renal
HOP-62 NSCLC = system: HOP-62 NSCLC
K-562 leukemia = system: K-562 leukemia
SR leukemia = system: SR leukemia
U251 CNS = system: U251 CNS
MCF7 breast = system: MCF7 breast
T-47D breast = system: T-47D breast
RXF 393 renal = system: RXF 393 renal
UO-31 renal = system: UO-31 renal
HCT-15 colon = system: HCT-15 colon
SF-539 CNS = system: SF-539 CNS
OVCAR-3 ovarian = system: OVCAR-3 ovarian
DU-145 prostate = system: DU-145 prostate
HS 578T breast = system: HS 578T breast
HL-60(TB) leukemia = system: HL-60(TB) leukemia
SF-295 CNS = system: SF-295 CNS
TK-10 renal = system: TK-10 renal
SF-268 CNS = system: SF-268 CNS
OVCAR-5 ovarian = system: OVCAR-5 ovarian
BT-549 breast = system: BT-549 breast
NCI-H226 lung = system: NCI-H226 lung
UACC-257 melanoma = system: UACC-257 melanoma
KM12 colon = system: KM12 colon
SK-MEL-2 melanoma = system: SK-MEL-2 melanoma
SNB-19 CNS = system: SNB-19 CNS
HOP-92 NSCLC = system: HOP-92 NSCLC
MDA-MB-231 breast = system: MDA-MB-231 breast
SK-MEL-5 melanoma = system: SK-MEL-5 melanoma
IGROV1 ovarian = system: IGROV1 ovarian
RPMI-8226 leukemia = system: RPMI-8226 leukemia
OVCAR-4 ovarian = system: OVCAR-4 ovarian
CCRF-CEM leukemia = system: CCRF-CEM leukemia

For `COc1cc(CNc2nc3cc(C(F)(F)F)ccc3nc2C(=O)O)cc(OC)c1OC`, the TGI (CAKI-1 renal) was 78.9 µM, the TGI (HCC-2998 colon) was > 100 µM and the TGI (EKVX NSCLC) was 57.1 µM. It also gave a TGI (PC-3 prostate) of 57.9 µM, a TGI (MDA-MB-435) of 92.9 µM and a TGI (A549 NSCLC) of 61.5 µM. The TGI (SW-620 colon) was > 100 µM, the TGI (NCI-H522 lung) was > 100 µM and the TGI (A498 renal) was 60.7 µM. The TGI (UACC-62 melanoma) was 28.9 µM, the TGI (OVCAR-8 ovarian) was > 100 µM and the TGI (MOLT-4 leukemia) was 58.1 µM. For the same molecule, the TGI (SN12C renal) was 30.2 µM, the TGI (NCI-H23 lung) was > 100 µM and the TGI (SK-MEL-28 melanoma) was > 100 µM. The TGI (M14 melanoma) was 35.7 µM, the TGI (HCT-116 colon) was 29 µM and the TGI (LOX IMVI melanoma) was > 100 µM. The TGI (NCI-H460 lung) was 82 µM, the TGI (NCI/ADR-RES ovarian) was 76.4 µM and the TGI (SNB-75 CNS) was 74.7 µM. The TGI (MALME-3M melanoma) was > 100 µM, the TGI (SK-OV-3 ovarian) was > 100 µM and the TGI (ACHN renal) was 73.3 µM. It also gave a TGI (MDA-N) of 45.2 µM, a TGI (COLO 205 colon) of 53.7 µM and a TGI (786-0 renal) of 59.1 µM. For the same molecule, the TGI (HOP-62 NSCLC) was 59.3 µM, the TGI (K-562 leukemia) was 61 µM and the TGI (SR leukemia) was > 100 µM. For the same molecule, the TGI (U251 CNS) was 31.2 µM, the TGI (MCF7 breast) was 49.9 µM and the TGI (T-47D breast) was 83.8 µM. The TGI (RXF 393 renal) was > 100 µM, the TGI (UO-31 renal) was 39.4 µM and the TGI (HCT-15 colon) was > 100 µM. The TGI (SF-539 CNS) was 37.6 µM, the TGI (OVCAR-3 ovarian) was 64.2 µM and the TGI (DU-145 prostate) was > 100 µM. The TGI (HS 578T breast) was 57 µM, the TGI (HL-60(TB) leukemia) was 15.4 µM and the TGI (SF-295 CNS) was 43.3 µM. For the same molecule, the TGI (TK-10 renal) was 39.7 µM, the TGI (SF-268 CNS) was > 100 µM and the TGI (OVCAR-5 ovarian) was > 100 µM. The TGI (BT-549 breast) was > 100 µM, the TGI (NCI-H226 lung) was > 100 µM and the TGI (UACC-257 melanoma) was 63.6 µM. For the same molecule, the TGI (KM12 colon) was 78.2 µM, the TGI (SK-MEL-2 melanoma) was 47.1 µM and the TGI (SNB-19 CNS) was 56.7 µM.

With `CCCCC(=O)Nc1ccc2cc(C(=O)OC)c(=O)[nH]c2n1` the TGI (CAKI-1 renal) was > 100 µM, the TGI (HCC-2998 colon) was > 100 µM and the TGI (EKVX NSCLC) was > 100 µM. For the same molecule, the TGI (PC-3 prostate) was > 100 µM, the TGI (MDA-MB-435) was > 100 µM and the TGI (A549 NSCLC) was > 100 µM. For the same molecule, the TGI (SW-620 colon) was > 100 µM, the TGI (NCI-H522 lung) was > 100 µM and the TGI (A498 renal) was > 100 µM. The TGI (HOP-92 NSCLC) was > 100 µM, the TGI (OVCAR-8 ovarian) was > 100 µM and the TGI (MOLT-4 leukemia) was > 100 µM. The TGI (SN12C renal) was > 100 µM, the TGI (MDA-MB-231 breast) was > 100 µM and the TGI (NCI-H23 lung) was > 100 µM. The TGI (SK-MEL-28 melanoma) was > 100 µM, the TGI (M14 melanoma) was > 100 µM and the TGI (HCT-116 colon) was > 100 µM. For the same molecule, the TGI (LOX IMVI melanoma) was > 100 µM, the TGI (NCI-H460 lung) was > 100 µM and the TGI (NCI/ADR-RES ovarian) was > 100 µM. The TGI (SK-MEL-5 melanoma) was > 100 µM, the TGI (SNB-75 CNS) was > 100 µM and the TGI (MALME-3M melanoma) was > 100 µM. The TGI (SK-OV-3 ovarian) was > 100 µM, the TGI (ACHN renal) was > 100 µM and the TGI (MDA-N) was > 100 µM. For the same molecule, the TGI (COLO 205 colon) was > 100 µM, the TGI (786-0 renal) was > 100 µM and the TGI (HOP-62 NSCLC) was > 100 µM. The TGI (K-562 leukemia) was > 100 µM, the TGI (SR leukemia) was > 100 µM and the TGI (U251 CNS) was > 100 µM. For the same molecule, the TGI (MCF7 breast) was > 100 µM, the TGI (T-47D breast) was > 100 µM and the TGI (RXF 393 renal) was > 100 µM. The TGI (UO-31 renal) was > 100 µM, the TGI (IGROV1 ovarian) was > 100 µM and the TGI (HCT-15 colon) was > 100 µM. The TGI (SF-539 CNS) was > 100 µM, the TGI (OVCAR-3 ovarian) was > 100 µM and the TGI (SF-295 CNS) was > 100 µM. For the same molecule, the TGI (RPMI-8226 leukemia) was > 100 µM, the TGI (TK-10 renal) was > 100 µM and the TGI (SF-268 CNS) was > 100 µM. The TGI (OVCAR-5 ovarian) was > 100 µM, the TGI (BT-549 breast) was > 100 µM and the TGI (NCI-H226 lung) was > 100 µM. For the same molecule, the TGI (OVCAR-4 ovarian) was > 100 µM, the TGI (UACC-257 melanoma) was > 100 µM and the TGI (KM12 colon) was > 100 µM. For the same molecule, the TGI (SK-MEL-2 melanoma) was > 100 µM, the TGI (CCRF-CEM leukemia) was > 100 µM and the TGI (SNB-19 CNS) was > 100 µM.

Reference: PubChem BioAssay (NCI)
